Data on one substance can be found in patent US20170283804A1, “ANTISENSE COMPOUNDS AND USES THEREOF” (Ionis Pharmaceuticals, Inc., priority 2014, published 2017).

k = constrained ethyl (cEt); d = 2'-deoxy (DNA)

For data set [1], the system named is mouse Metastasis associated lung adenocarcinoma transcript 1 (Malat-1). The data set can be described thus: In vivo dose response of Isis No. 556062 with and without FTY-720 pre-treatment (Malat-1 RNA, Example 3). The following applies: mice, Liver. The protocol: (§1) Each treatment group consisted of 4 animals.
Malat-1 RNA levels were determined as described in Example 2. The results are presented in Table 18 as average Malat-1 RNA levels for each treatment group. Results for groups that received Isis No. 556062 alone are relative the group that received only PBS, and results for groups that received Isis No. 556062 and 1 mg/kg FTY-720 are relative to the group that received 1 mg/kg FTY-720 and PBS in place of Isis No. 556062.

A short description of data set [2]: Liver transaminase levels (ALT, AST) in serum, Example 3. In kind it is in vivo. Conditions: mice serum.
Description: as §1

The mark [3] stands for this setting: 0.3 mg/kg 556062 subcutaneous, FTY-720 dose 0 mg/kg.
Where [4] appears, read: 1 mg/kg 556062 subcutaneous, FTY-720 dose 0 mg/kg.
Where [5] appears, read: 3 mg/kg 556062 subcutaneous, FTY-720 dose 0 mg/kg.
[6] abbreviates: 9 mg/kg 556062 subcutaneous, FTY-720 dose 0 mg/kg.
Setting [7] is: 0.3 mg/kg 556062 subcutaneous, FTY-720 dose 1 mg/kg.
Setting [8] is: 1 mg/kg 556062 subcutaneous, FTY-720 dose 1 mg/kg.
The mark [9] stands for this setting: 3 mg/kg 556062 subcutaneous, FTY-720 dose 1 mg/kg.
Setting [10] is: 9 mg/kg 556062 subcutaneous, FTY-720 dose 1 mg/kg.

On to “556062 (antisense GGCTTAATGCAGCATT; sugars from the 5' end k3 d10 k3, all phosphorothioate, methylation of C not given here) [compound 556062]”, for which the “Average Malat-1 RNA” value in data set [1] (setting [3]) stood at 80 % control; in data set [1] (0.3 mg/kg 556062 subcutaneous, FTY-720 dose 1 mg/kg i.p. daily), 63 % control; in data set [1] (setting [4]) it was 49 % control; in data set [1] (1 mg/kg 556062 subcutaneous, FTY-720 dose 1 mg/kg i.p. daily), 36 % control; in data set [1] (setting [5]), 18 % control; in data set [1] (3 mg/kg 556062 subcutaneous, FTY-720 dose 1 mg/kg i.p. daily), 19 % control. Further, the “Average Malat-1 RNA” value turned out to be 11 % control in data set [1] (setting [6]) and 6 % control in data set [1] (9 mg/kg 556062 subcutaneous, FTY-720 dose 1 mg/kg i.p. daily). Also, the ALT stood at 24 U/L in data set [2] (setting [3]); 17 U/L in data set [2] (setting [7]); 56 U/L in data set [2] (setting [4]); 18 U/L in data set [2] (setting [8]); 24 U/L in data set [2] (setting [5]); 25 U/L in data set [2] (setting [9]). Besides, the ALT is on record as 31 U/L in data set [2] (setting [6]) and 24 U/L in data set [2] (setting [10]). The AST in data set [2] (setting [3]) is on record as 48 U/L; in data set [2] (setting [7]), 48 U/L; in data set [2] (setting [4]) it was 50 U/L; in data set [2] (setting [8]), 45 U/L; in data set [2] (setting [5]), 58 U/L; in data set [2] (setting [9]) it was 40 U/L. Besides, the AST in data set [2] (setting [6]) turned out to be 71 U/L; in data set [2] (setting [10]), 46 U/L.
